Experimental data reported in patent publication US20250230193A1, “CYCLIC COMPOUND HAVING SELECTIVE KRAS INHIBITORY EFFECT ON HRAS AND NRAS” (CHUGAI SEIYAKU KABUSHIKI KAISHA, priority 2022, published 2025).
*1 amine or outer side, *2 acyl side, *3 side chain or, on linkers, in order; H or OH if unused. Where a SMILES comes first, the peptide text is derived from it. Bridges are numbered along the chain shown (N, C = ends). [ ]: non-standard residue; d: D form. The star is where a group is joined. hPhe(3-Cl-4-CF3) = N[C@@H](CCc1ccc(C(F)(F)F)c(Cl)c1)C(=O)O; NEtPhe(4-CF3) = CCN[C@@H](Cc1ccc(C(F)(F)F)cc1)C(=O)O; NEtPhe(4-Me) = CCN[C@@H](Cc1ccc(C)cc1)C(=O)O; NMePhe(4-Me) = CN[C@@H](Cc1ccc(C)cc1)C(=O)O; X30 = CCN([C@H](C(=O)[*:2])C1CCCC1)[*:1]; NMeGly(cPent) = CN[C@H](C(=O)O)C1CCCC1; NMeD = CN[C@@H](CC(=O)O)C(=O)O; NMeL = CN[C@@H](CC(C)C)C(=O)O; Morpholide = C1CN(*)CCO1; NMeA = CN[C@@H](C)C(=O)O; Ac5c = NC1(C(=O)O)CCCC1; NBuGly = CCCCNCC(=O)O; NPrGly = CCCNCC(=O)O; NEtG = CCNCC(=O)O; Sar = CNCC(=O)O

Assays:
[1] = target: GDP-bound NRAS wild-type protein (Homo sapiens, UniProt P01111); assay: Binding to NRAS by surface plasmon resonance (SPR), Single Cycle Kinetics; conditions: KD ratio NRAS/KRAS, SPR
[2] = target: GDP-bound HRAS wild-type protein (Homo sapiens, UniProt P01112); assay: Binding to HRAS by surface plasmon resonance (SPR), Single Cycle Kinetics; conditions: KD ratio HRAS/KRAS, SPR
Sequence of GDP-bound HRAS wild-type protein (P01112 whole entry): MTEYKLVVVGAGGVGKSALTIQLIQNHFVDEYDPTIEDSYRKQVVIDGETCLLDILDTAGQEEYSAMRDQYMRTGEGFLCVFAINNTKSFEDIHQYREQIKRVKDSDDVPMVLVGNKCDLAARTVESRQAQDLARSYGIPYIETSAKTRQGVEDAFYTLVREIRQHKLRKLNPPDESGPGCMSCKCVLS

Sequence of GDP-bound NRAS wild-type protein (P01111 whole entry): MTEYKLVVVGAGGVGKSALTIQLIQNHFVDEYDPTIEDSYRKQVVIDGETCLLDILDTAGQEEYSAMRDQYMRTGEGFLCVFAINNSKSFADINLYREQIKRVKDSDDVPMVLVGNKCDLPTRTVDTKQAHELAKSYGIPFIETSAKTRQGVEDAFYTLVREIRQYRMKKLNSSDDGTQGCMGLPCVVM

Compound	NRAS/KRAS (ratio of KD for GDP-bound NRAS wild-type to KD for KRAS) [1]	HRAS/KRAS (ratio of KD for GDP-bound HRAS wild-type to KD for KRAS) [2]
CC[C@H](C)[C@@H]1NC(=O)[C@H](CC(C)C)N(C)C(=O)C[C@@H](C(=O)N2CCOCC2)N(C)C(=O)[C@H](C2CCCC2)N(C)C(=O)C2(CCCC2)NC(=O)[C@@H]2CCCN2C(=O)[C@H](CCc2ccc(C(F)(F)F)c(Cl)c2)NC(=O)CN(C)C(=O)[C@H](Cc2ccc(C)cc2)N(C)C(=O)CN(C)C(=O)CN(C)C1=O [PP0018] ([NMeL]I[Sar][Sar][NMePhe(4-Me)][Sar][hPhe(3-Cl-4-CF3)]P[Ac5c][NMeGly(cPent)][NMeD]-Morpholide; lactam N-11)	C (A compound having a KD ratio of 0.1 or more and less than 3 is denoted as C)	C (A compound having a KD ratio of 0.1 or more and less than 3 is denoted as C)
CC[C@H](C)[C@@H]1NC(=O)[C@H](CC(C)C)N(C)C(=O)C[C@@H](C(=O)N2CCOCC2)N(C)C(=O)[C@H](C2CCCC2)N(C)C(=O)C2(CCCC2)NC(=O)[C@@H]2CCCN2C(=O)[C@H](CCc2ccc(C(F)(F)F)c(Cl)c2)NC(=O)CN(C)C(=O)[C@H](Cc2ccc(C)cc2)N(C)C(=O)CN(CC)C(=O)CN(C)C1=O [PP0019] ([NMeL]I[Sar][NEtG][NMePhe(4-Me)][Sar][hPhe(3-Cl-4-CF3)]P[Ac5c][NMeGly(cPent)][NMeD]-Morpholide; lactam N-11)	C (A compound having a KD ratio of 0.1 or more and less than 3 is denoted as C)	C (A compound having a KD ratio of 0.1 or more and less than 3 is denoted as C)
CCCN1CC(=O)N(C)[C@@H](Cc2ccc(C)cc2)C(=O)N(C)CC(=O)N[C@@H](CCc2ccc(C(F)(F)F)c(Cl)c2)C(=O)N2CCC[C@H]2C(=O)NC2(CCCC2)C(=O)N(C)[C@@H](C2CCCC2)C(=O)N(C)[C@H](C(=O)N2CCOCC2)CC(=O)N(C)[C@@H](CC(C)C)C(=O)N[C@@H]([C@@H](C)CC)C(=O)N(C)CC1=O [PP0020] ([NMeL]I[Sar][NPrGly][NMePhe(4-Me)][Sar][hPhe(3-Cl-4-CF3)]P[Ac5c][NMeGly(cPent)][NMeD]-Morpholide; lactam N-11)	C (A compound having a KD ratio of 0.1 or more and less than 3 is denoted as C)	C (A compound having a KD ratio of 0.1 or more and less than 3 is denoted as C)
CCCCN1CC(=O)N(C)[C@@H](Cc2ccc(C)cc2)C(=O)N(C)CC(=O)N[C@@H](CCc2ccc(C(F)(F)F)c(Cl)c2)C(=O)N2CCC[C@H]2C(=O)NC2(CCCC2)C(=O)N(C)[C@@H](C2CCCC2)C(=O)N(C)[C@H](C(=O)N2CCOCC2)CC(=O)N(C)[C@@H](CC(C)C)C(=O)N[C@@H]([C@@H](C)CC)C(=O)N(C)CC1=O [PP0021] ([NMeL]I[Sar][NBuGly][NMePhe(4-Me)][Sar][hPhe(3-Cl-4-CF3)]P[Ac5c][NMeGly(cPent)][NMeD]-Morpholide; lactam N-11)	C (A compound having a KD ratio of 0.1 or more and less than 3 is denoted as C)	C (A compound having a KD ratio of 0.1 or more and less than 3 is denoted as C)
CC[C@H](C)[C@@H]1NC(=O)[C@H](CC(C)C)N(C)C(=O)C[C@@H](C(=O)N2CCOCC2)N(C)C(=O)[C@H](C2CCCC2)N(C)C(=O)C2(CCCC2)NC(=O)[C@@H]2CCCN2C(=O)[C@H](CCc2ccc(C(F)(F)F)c(Cl)c2)NC(=O)CN(C)C(=O)[C@H](Cc2ccc(C)cc2)N(CC)C(=O)CN(C)C(=O)CN(C)C1=O [PP0022] ([NMeL]I[Sar][Sar][NEtPhe(4-Me)][Sar][hPhe(3-Cl-4-CF3)]P[Ac5c][NMeGly(cPent)][NMeD]-Morpholide; lactam N-11)	B (a compound having 3 or more and less than 10 is denoted as B)	C (A compound having a KD ratio of 0.1 or more and less than 3 is denoted as C)
CC[C@H](C)[C@@H]1NC(=O)[C@H](CC(C)C)N(C)C(=O)C[C@@H](C(=O)N2CCOCC2)N(C)C(=O)[C@H](C2CCCC2)N(C)C(=O)C2(CCCC2)NC(=O)[C@@H]2CCCN2C(=O)[C@H](CCc2ccc(C(F)(F)F)c(Cl)c2)NC(=O)CN(C)C(=O)[C@H](Cc2ccc(C(F)(F)F)cc2)N(CC)C(=O)CN(C)C(=O)CN(C)C1=O [PP0023] ([NMeL]I[Sar][Sar][NEtPhe(4-CF3)][Sar][hPhe(3-Cl-4-CF3)]P[Ac5c][NMeGly(cPent)][NMeD]-Morpholide; lactam N-11)	B (a compound having 3 or more and less than 10 is denoted as B)	C (A compound having a KD ratio of 0.1 or more and less than 3 is denoted as C)
CC[C@H](C)[C@@H]1NC(=O)[C@H](CC(C)C)N(C)C(=O)C[C@@H](C(=O)N2CCOCC2)N(C)C(=O)[C@H](C2CCCC2)N(C)C(=O)C2(CCCC2)NC(=O)[C@@H]2CCCN2C(=O)[C@H](CCc2ccc(C(F)(F)F)c(Cl)c2)NC(=O)CN(C)C(=O)[C@H](C2CCCC2)N(CC)C(=O)CN(C)C(=O)CN(C)C1=O [PP0024] ([NMeL]I[Sar][Sar][X30][Sar][hPhe(3-Cl-4-CF3)]P[Ac5c][NMeGly(cPent)][NMeD]-Morpholide; lactam N-11)	B (a compound having 3 or more and less than 10 is denoted as B)	C (A compound having a KD ratio of 0.1 or more and less than 3 is denoted as C)
CC[C@H](C)[C@@H]1NC(=O)[C@H](CC(C)C)N(C)C(=O)C[C@@H](C(=O)N2CCOCC2)N(C)C(=O)[C@H](C2CCCC2)N(C)C(=O)C2(CCCC2)NC(=O)[C@@H]2CCCN2C(=O)[C@H](CCc2ccc(C(F)(F)F)c(Cl)c2)NC(=O)CN(CC)C(=O)[C@H](Cc2ccc(C)cc2)N(C)C(=O)CN(C)C(=O)CN(C)C1=O [PP0025] ([NMeL]I[Sar][Sar][NMePhe(4-Me)][NEtG][hPhe(3-Cl-4-CF3)]P[Ac5c][NMeGly(cPent)][NMeD]-Morpholide; lactam N-11)	C (A compound having a KD ratio of 0.1 or more and less than 3 is denoted as C)	C (A compound having a KD ratio of 0.1 or more and less than 3 is denoted as C)
CC[C@H](C)[C@@H]1NC(=O)[C@H](CC(C)C)N(C)C(=O)C[C@@H](C(=O)N2CCOCC2)N(C)C(=O)[C@H](C2CCCC2)N(C)C(=O)C2(CCCC2)NC(=O)[C@@H]2CCCN2C(=O)[C@H](CCc2ccc(C(F)(F)F)c(Cl)c2)NC(=O)CN(C)C(=O)[C@H](Cc2ccc(C)cc2)N(CC)C(=O)CN(CC)C(=O)CN(C)C1=O [PP0027] ([NMeL]I[Sar][NEtG][NEtPhe(4-Me)][Sar][hPhe(3-Cl-4-CF3)]P[Ac5c][NMeGly(cPent)][NMeD]-Morpholide; lactam N-11)	C (A compound having a KD ratio of 0.1 or more and less than 3 is denoted as C)	C (A compound having a KD ratio of 0.1 or more and less than 3 is denoted as C)
CC[C@H](C)[C@@H]1NC(=O)[C@H](CC(C)C)N(C)C(=O)C[C@@H](C(=O)N2CCOCC2)N(C)C(=O)[C@H](C2CCCC2)N(C)C(=O)C2(CCCC2)NC(=O)[C@@H]2CCCN2C(=O)[C@H](CCc2ccc(C(F)(F)F)c(Cl)c2)NC(=O)CN(CC)C(=O)[C@H](Cc2ccc(C)cc2)N(CC)C(=O)CN(C)C(=O)CN(C)C1=O [PP0028] ([NMeL]I[Sar][Sar][NEtPhe(4-Me)][NEtG][hPhe(3-Cl-4-CF3)]P[Ac5c][NMeGly(cPent)][NMeD]-Morpholide; lactam N-11)	C (A compound having a KD ratio of 0.1 or more and less than 3 is denoted as C)	C (A compound having a KD ratio of 0.1 or more and less than 3 is denoted as C)
CC[C@H](C)[C@@H]1NC(=O)[C@H](CC(C)C)N(C)C(=O)C[C@@H](C(=O)N2CCOCC2)N(C)C(=O)[C@H](C2CCCC2)N(C)C(=O)C2(CCCC2)NC(=O)[C@@H]2CCCN2C(=O)[C@H](CCc2ccc(C(F)(F)F)c(Cl)c2)NC(=O)CN(CC)C(=O)[C@H](Cc2ccc(C)cc2)N(C)C(=O)CN(CC)C(=O)CN(C)C1=O [PP0029] ([NMeL]I[Sar][NEtG][NMePhe(4-Me)][NEtG][hPhe(3-Cl-4-CF3)]P[Ac5c][NMeGly(cPent)][NMeD]-Morpholide; lactam N-11)	C (A compound having a KD ratio of 0.1 or more and less than 3 is denoted as C)	C (A compound having a KD ratio of 0.1 or more and less than 3 is denoted as C)
CC[C@H](C)[C@@H]1NC(=O)[C@H](CC(C)C)N(C)C(=O)C[C@@H](C(=O)N2CCOCC2)N(C)C(=O)[C@H](C2CCCC2)N(C)C(=O)C2(CCCC2)NC(=O)[C@@H]2CCCN2C(=O)[C@H](CCc2ccc(C(F)(F)F)c(Cl)c2)NC(=O)CN(CC)C(=O)[C@H](Cc2ccc(C)cc2)N(CC)C(=O)CN(CC)C(=O)CN(C)C1=O [PP0030] ([NMeL]I[Sar][NEtG][NEtPhe(4-Me)][NEtG][hPhe(3-Cl-4-CF3)]P[Ac5c][NMeGly(cPent)][NMeD]-Morpholide; lactam N-11)	C (A compound having a KD ratio of 0.1 or more and less than 3 is denoted as C)	C (A compound having a KD ratio of 0.1 or more and less than 3 is denoted as C)
CC[C@H](C)[C@@H]1NC(=O)[C@H](C)N(C)C(=O)C[C@@H](C(=O)N2CCOCC2)N(C)C(=O)[C@H](C2CCCC2)N(C)C(=O)C2(CCCC2)NC(=O)[C@@H]2CCCN2C(=O)[C@H](CCc2ccc(C(F)(F)F)c(Cl)c2)NC(=O)CN(C)C(=O)[C@H](Cc2ccc(C)cc2)N(CC)C(=O)CN(C)C(=O)CN(C)C1=O [PP0031] ([NMeA]I[Sar][Sar][NEtPhe(4-Me)][Sar][hPhe(3-Cl-4-CF3)]P[Ac5c][NMeGly(cPent)][NMeD]-Morpholide; lactam N-11)	B (a compound having 3 or more and less than 10 is denoted as B)	C (A compound having a KD ratio of 0.1 or more and less than 3 is denoted as C)
